Molecular target: Histone-lysine N-methyltransferase EZH2 (Homo sapiens, UniProt Q15910)
Test: Inhibition of methyltransferase activity of flag-tagged EZH2 in human PRC2 complex expressed in Sf9 insect cells using biotinylated histone H3K27 peptide as substrate after 60 mins in presence of 3H-SAM by scintillation proximity assay

Chain of Histone-lysine N-methyltransferase EZH2 (Q15910 whole entry): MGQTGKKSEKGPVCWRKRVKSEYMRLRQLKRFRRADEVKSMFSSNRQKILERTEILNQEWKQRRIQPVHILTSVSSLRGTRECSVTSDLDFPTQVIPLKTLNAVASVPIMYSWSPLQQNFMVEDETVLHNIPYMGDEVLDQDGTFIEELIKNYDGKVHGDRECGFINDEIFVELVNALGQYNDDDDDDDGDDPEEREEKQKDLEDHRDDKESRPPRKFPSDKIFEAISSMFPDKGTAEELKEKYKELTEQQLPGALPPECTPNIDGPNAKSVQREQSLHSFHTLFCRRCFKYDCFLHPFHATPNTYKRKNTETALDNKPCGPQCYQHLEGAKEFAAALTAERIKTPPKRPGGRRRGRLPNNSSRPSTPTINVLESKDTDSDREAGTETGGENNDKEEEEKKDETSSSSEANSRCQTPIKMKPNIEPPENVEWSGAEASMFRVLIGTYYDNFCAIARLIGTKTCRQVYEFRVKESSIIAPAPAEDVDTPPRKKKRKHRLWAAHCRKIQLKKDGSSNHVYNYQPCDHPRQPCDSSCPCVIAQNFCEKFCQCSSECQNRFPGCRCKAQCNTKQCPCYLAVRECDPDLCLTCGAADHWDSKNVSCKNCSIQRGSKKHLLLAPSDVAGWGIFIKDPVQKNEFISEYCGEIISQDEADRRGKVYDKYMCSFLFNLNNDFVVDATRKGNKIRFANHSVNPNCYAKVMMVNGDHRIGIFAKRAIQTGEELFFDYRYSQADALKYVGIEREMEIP

Row | SMILES | IC50 [µM]
1 | Cc1cc(C)c(CN2CCCc3sc([C@H](C)C4CCN(CC5CCCCC5)CC4)c(C)c3C2)c(=O)[nH]1 | ≤ 0.01
2 | Cc1cc(C)c(CN2CCCc3sc([C@H](C)C4CCN(Cc5ccccn5)CC4)c(C)c3C2)c(=O)[nH]1 | ≤ 0.01
3 | CC[C@@H](c1scc(C(=O)NCc2c(C)cc(C)[nH]c2=O)c1C)C1CCN(Cc2ccc(Cl)cn2)CC1 | ≤ 0.01

The remaining lines, values ahead:

Row | IC50 [µM] | SMILES
4 | ≤ 0.01 | CC[C@@H](c1sc2c(c1C)CN(Cc1c(C)cc(C)[nH]c1=O)CC2)C1CCN(Cc2ccnc(OC)c2)CC1
5 | ≤ 0.01 | CC[C@@H](c1sc2c(c1C)C(=O)N(Cc1c(C)cc(C)[nH]c1=O)CC2)C1CCN(Cc2ccccc2)CC1
6 | ≤ 0.01 | CC[C@@H](c1sc2c(c1C)CN(C(=O)c1c(C)cc(C)[nH]c1=O)CC2)C1CCN(Cc2ccccn2)CC1
